Measurements published in PubChem BioAssay (NCI).
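These data come from cells grown in 96-well plates and exposed to compound for 48 hours at five concentrations. GI50 is the concentration that inhibits growth by half. The concentration for full growth arrest is given as TGI.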

Tests used:
Assay in all cases: inhibition of tumour cell growth, NCI panel, 48 h
A549 NSCLC = test system: A549 NSCLC
COLO 205 colon = test system: COLO 205 colon
HL-60(TB) leukemia = test system: HL-60(TB) leukemia
KM12 colon = test system: KM12 colon
MDA-MB-435 = test system: MDA-MB-435
OVCAR-3 ovarian = test system: OVCAR-3 ovarian
PC-3 prostate = test system: PC-3 prostate
SNB-19 CNS = test system: SNB-19 CNS
TK-10 renal = test system: TK-10 renal
UO-31 renal = test system: UO-31 renal

COC(=O)c1cc2ccccc2c2c3c(ccc12)OCO3
GI50 (A549 NSCLC): 117 µM | TGI (A549 NSCLC): > 1000 µM | TGI (COLO 205 colon): > 1000 µM | TGI (HL-60(TB) leukemia): > 1000 µM | GI50 (KM12 colon): 515 µM | TGI (KM12 colon): > 1000 µM | GI50 (MDA-MB-435): 531 µM | TGI (MDA-MB-435): > 1000 µM | GI50 (OVCAR-3 ovarian): 68.7 µM | TGI (OVCAR-3 ovarian): 700 µM | GI50 (PC-3 prostate): 67.4 µM | TGI (PC-3 prostate): > 1000 µM | GI50 (SNB-19 CNS): 73 µM | TGI (SNB-19 CNS): 990 µM | GI50 (TK-10 renal): 43.8 µM | TGI (TK-10 renal): 325 µM | GI50 (UO-31 renal): 224 µM | TGI (UO-31 renal): > 1000 µM

Cc1[nH]c(=O)nc(Nc2ccc(Cl)cc2)c1C(=O)N1CCN(CCO)CC1
GI50 (A549 NSCLC): > 100 µM | TGI (A549 NSCLC): > 100 µM | GI50 (COLO 205 colon): > 100 µM | TGI (COLO 205 colon): > 100 µM | GI50 (HL-60(TB) leukemia): > 100 µM | TGI (HL-60(TB) leukemia): > 100 µM | GI50 (KM12 colon): > 100 µM | TGI (KM12 colon): > 100 µM | GI50 (MDA-MB-435): > 100 µM | TGI (MDA-MB-435): > 100 µM | GI50 (OVCAR-3 ovarian): > 100 µM | TGI (OVCAR-3 ovarian): > 100 µM | GI50 (PC-3 prostate): > 100 µM | TGI (PC-3 prostate): > 100 µM | GI50 (SNB-19 CNS): 33.8 µM | TGI (SNB-19 CNS): > 100 µM | GI50 (TK-10 renal): 77.7 µM | TGI (TK-10 renal): > 100 µM | GI50 (UO-31 renal): > 100 µM | TGI (UO-31 renal): > 100 µM

C#CCNCCN1C(=O)c2ccc3c4c(ccc(c24)C1=O)C(=O)N(CCNCC#C)C3=O
GI50 (A549 NSCLC): 2.69 µM | TGI (A549 NSCLC): 11.6 µM | GI50 (COLO 205 colon): 2 µM | TGI (COLO 205 colon): 6.92 µM | GI50 (HL-60(TB) leukemia): 8.35 µM | TGI (HL-60(TB) leukemia): 25.8 µM | GI50 (KM12 colon): 3.35 µM | TGI (KM12 colon): 11.4 µM | GI50 (MDA-MB-435): 1.52 µM | TGI (MDA-MB-435): 5.85 µM | GI50 (OVCAR-3 ovarian): 1.52 µM | TGI (OVCAR-3 ovarian): 4.22 µM | GI50 (PC-3 prostate): 7.09 µM | TGI (PC-3 prostate): 21.2 µM | GI50 (SNB-19 CNS): 3.56 µM | TGI (SNB-19 CNS): 10.6 µM | GI50 (TK-10 renal): 7.38 µM | TGI (TK-10 renal): 23.8 µM | GI50 (UO-31 renal): 3.09 µM | TGI (UO-31 renal): 12.3 µM

C=C1CC[C@@H]2[C@](C)(COC(C)=O)[C@H](OC(C)=O)CC[C@@]2(C)[C@@H]1CC(Nc1ccc(S(=O)(=O)Nc2ccc(Cl)nn2)cc1)C1=CCOC1=O (stereo partly drawn)
GI50 (A549 NSCLC): 2.96 µM | TGI (A549 NSCLC): 10.7 µM | GI50 (COLO 205 colon): 1.46 µM | TGI (COLO 205 colon): 3.16 µM | GI50 (HL-60(TB) leukemia): 1.32 µM | TGI (HL-60(TB) leukemia): 4.44 µM | GI50 (KM12 colon): 1.7 µM | TGI (KM12 colon): 3.49 µM | GI50 (MDA-MB-435): 1.4 µM | TGI (MDA-MB-435): 3.17 µM | GI50 (OVCAR-3 ovarian): 1.22 µM | TGI (OVCAR-3 ovarian): 2.51 µM | GI50 (PC-3 prostate): 2.24 µM | TGI (PC-3 prostate): 5.25 µM | GI50 (SNB-19 CNS): 1.91 µM | TGI (SNB-19 CNS): 3.91 µM | GI50 (TK-10 renal): 2.13 µM | TGI (TK-10 renal): 4.19 µM | GI50 (UO-31 renal): 1.45 µM | TGI (UO-31 renal): 2.88 µM

COc1ccc(C2=C(c3ccc(OC)c(OC)c3)C(=O)N3CCCC3C2)cc1 (stereo not drawn)
GI50 (A549 NSCLC): 15.1 µM | TGI (A549 NSCLC): > 100 µM | GI50 (COLO 205 colon): 8.41 µM | TGI (COLO 205 colon): > 100 µM | GI50 (HL-60(TB) leukemia): 4.26 µM | TGI (HL-60(TB) leukemia): 22.7 µM | GI50 (KM12 colon): 15.7 µM | TGI (KM12 colon): > 100 µM | GI50 (MDA-MB-435): 25.7 µM | TGI (MDA-MB-435): > 100 µM | GI50 (OVCAR-3 ovarian): 23.9 µM | TGI (OVCAR-3 ovarian): > 93.8 µM | GI50 (PC-3 prostate): 9.73 µM | TGI (PC-3 prostate): > 100 µM | GI50 (SNB-19 CNS): 63.8 µM | TGI (SNB-19 CNS): > 100 µM | GI50 (TK-10 renal): 76.2 µM | TGI (TK-10 renal): > 100 µM | GI50 (UO-31 renal): 22.8 µM | TGI (UO-31 renal): > 100 µM

CCOC(=O)C1CCCCN1C(=O)c1ccc(Nc2cnc3cc(C(F)(F)F)ccc3n2)cc1 (stereo not drawn)
GI50 (A549 NSCLC): 15 µM | TGI (A549 NSCLC): 44.2 µM | GI50 (COLO 205 colon): 23 µM | TGI (COLO 205 colon): 71.8 µM | GI50 (HL-60(TB) leukemia): 19.1 µM | TGI (HL-60(TB) leukemia): > 100 µM | GI50 (KM12 colon): 13.1 µM | TGI (KM12 colon): 27.8 µM | GI50 (MDA-MB-435): 14.7 µM | TGI (MDA-MB-435): 28.3 µM | GI50 (OVCAR-3 ovarian): 15.5 µM | TGI (OVCAR-3 ovarian): 31.6 µM | GI50 (PC-3 prostate): 11.5 µM | TGI (PC-3 prostate): 26.9 µM | GI50 (SNB-19 CNS): 21.3 µM | TGI (SNB-19 CNS): 64.1 µM | GI50 (TK-10 renal): 13.3 µM | TGI (TK-10 renal): 28 µM | GI50 (UO-31 renal): 14.2 µM | TGI (UO-31 renal): 33.2 µM

CCSc1nc(SCC)c2c(-c3ccc(OC)c(OC)c3)c(C#N)c(SCC)nc2n1
GI50 (A549 NSCLC): 30.4 µM | TGI (A549 NSCLC): 79.1 µM | GI50 (COLO 205 colon): 91.5 µM | TGI (COLO 205 colon): > 100 µM | GI50 (HL-60(TB) leukemia): 81.1 µM | TGI (HL-60(TB) leukemia): > 100 µM | GI50 (KM12 colon): 43.1 µM | TGI (KM12 colon): > 100 µM | GI50 (MDA-MB-435): 18.7 µM | TGI (MDA-MB-435): 57.8 µM | GI50 (OVCAR-3 ovarian): 10.5 µM | TGI (OVCAR-3 ovarian): 32.5 µM | GI50 (PC-3 prostate): 26.6 µM | TGI (PC-3 prostate): > 100 µM | GI50 (SNB-19 CNS): 47.7 µM | TGI (SNB-19 CNS): > 100 µM | GI50 (TK-10 renal): 17.5 µM | TGI (TK-10 renal): 53.3 µM | GI50 (UO-31 renal): 32.9 µM | TGI (UO-31 renal): > 100 µM

O1[As]2O[As]3O[As]1O[As](O2)O3
GI50 (A549 NSCLC): 3.29 µM | TGI (A549 NSCLC): 14.9 µM | GI50 (COLO 205 colon): 1.67 µM | TGI (COLO 205 colon): 4.5 µM | GI50 (HL-60(TB) leukemia): 0.344 µM | TGI (HL-60(TB) leukemia): 1.73 µM | GI50 (KM12 colon): 3.31 µM | TGI (KM12 colon): 13.9 µM | GI50 (MDA-MB-435): 1.64 µM | TGI (MDA-MB-435): 7.69 µM | GI50 (OVCAR-3 ovarian): 0.283 µM | TGI (OVCAR-3 ovarian): 0.72 µM | GI50 (PC-3 prostate): 0.781 µM | TGI (PC-3 prostate): 5.9 µM | GI50 (SNB-19 CNS): 1.65 µM | TGI (SNB-19 CNS): 4.44 µM | GI50 (TK-10 renal): 2.31 µM | TGI (TK-10 renal): 9.5 µM | GI50 (UO-31 renal): 1.22 µM | TGI (UO-31 renal): 2.84 µM
